Data reported in US20040086500A1, “Rh116 polypeptides and its fragments and polynucleotides encoding said polypeptides and therapeutic uses” (priority 2000, published 2004).
“Also recorded” adds a separate entry of the source.

Key:
[1] = in vivo; cited from earlier work
[2] = test system: PBMCs of CD8 lymphocyte-depleted patients; type: cell-based, human
Source text: Specifically, MB inhibits by 70 to 100% the level of HIV viral protein p24 in the culture supernatants. This effect correlates with the level of expression of viral messenger RNAs (nonspliced and single-spliced).

[3] = test system: RH116 messenger RNA; assay: Semiquantitative RT-PCR of RH116 mRNA in CD8-depleted PBMCs of HIV-1 infected patients; type: cell-based, human; conditions: for maximum mean inhibition of expression of the RH116 messenger RNA: murabutide 10 μg/ml
Source text: Venous blood is collected from patients sero-positive for HIV-1 and peripheral blood mononuclear cells (PBMCs) are isolated by centrifugation on Ficoll-Hypaque (AMERSHAM PHARMACIA BIOTECH, Uppsala, Sweden). The cells are washed carefully in order to remove the platelets and are depleted of CD8+ cells using electro-magnetic beads covered with an anti-CD8 antibody (DYNAL, Oslo, Norway). The depleted PBMCs obtained using the manufacturer's protocol contain less than 3% of CD8+ cells after analysis by flow cytometry. […]. Next, the PBMCs are cultured and then recovered in the presence or absence of murabutide (N-acetylmuramyl-L-alanyl-D-glutamine-n-butyl ester) (provided by ISTAC SA, Lille, France) (10 μg/ml) and interleukin 2 (IL-2) (10 μg/ml) for 6 or 24 hours.
(§1) The total cellular RNA extracted using the RNA plus kit (Q-BIOgene, Illkirch, France) is pretreated with DNAse I. Synthesis of the first strand on the polyA+ RNA was primed with a p(dT)15 primer (BOERHINGER MANNHEIM, ROCHE DIAGNOSTICS, France) and carried out with the reverse transcriptase derived from the Moloney murine leukemia virus (M-MLV) (PROMEGA, Madison, Calif., USA) (1 hour at 37° C., 3 min at 92° C.). The resulting cDNA is then subjected to 25 to 35 repeat amplification cycles with the AmpliTaq Gold polymerase (APPLIED BIOSYSTEMS). PCR amplification of the GAPDH sequences is carried out in order to obtain an internal control. […]
PBMCs of patients (P) infected with HIV or of control healthy donors (C) are isolated, depleted of CD8+ lymphocytes (Dynabeads, Dynal) and stimulated with phytohemagglutinin, PHA (5 μg/ml), for 3 days. […] The number of amplification cycles was determined beforehand (35 cycles). The amplified fragments are visualized on an agarose gel (1%) in the presence of ethidium bromide, and then quantified using the Imager master program (Pharmacia). […]

[4] = test system: human immunodeficiency virus (HIV); conditions: macrophages, dendritic cells, PBMCs of infected patients; cited from earlier work
[5] = test system: RH116 gene; assay: Semiquantitative RT-PCR of RH116 gene expression in PBMCs of healthy donors; type: cell-based, human; conditions: 10 healthy controls, in particular after 6 hours, 10 μg/ml
Method: as §1
PBMCs of patients (P) infected with HIV or of control healthy donors (C) are isolated, depleted of CD8+ lymphocytes (Dynabeads, Dynal) and stimulated with phytohemagglutinin, PHA (5 μg/ml), for 3 days. […] The number of amplification cycles was determined beforehand (35 cycles). The amplified fragments are visualized on an agarose gel (1%) in the presence of ethidium bromide, and then quantified using the Imager master program (Pharmacia). […] The results are then expressed as % increase or % inhibition of expression of the gene compared with the untreated cells. […]

N-acetylmuramyl-L-alanyl-D-glutamine-n-butyl ester [murabutide]
clinical tolerance [1]: good clinical tolerance
inflammatory reactions [1]: does not induce inflammatory reactions
pyrogenicity [1]: not pyrogenic
toxicity in clinical studies [1]: has not shown severe toxicity
number of live cells (lack of toxicity) [2]: remain unchanged
expression of the RH116 gene compared with untreated cells ([3]; 12 patients, 6 or 24 h, 10 μg/ml): significant inhibition
maximum mean inhibition of expression of the RH116 messenger RNA ([3]; 6 hours, patient No. 5): 90%
maximum mean inhibition of expression of the RH116 messenger RNA ([3]; 24 hours, patient No. 3): 57%
HIV replication [4]: inhibits
expression of the RH116 gene compared with untreated cells [5]: increases the level of expression; also recorded: very significant increase
